Measured values as given in US20220089612A1, “HETEROCYCLIC COMPOUNDS AS PRMT5 INHIBITORS” (ANGEX PHARMACEUTICAL, INC., priority 2017, published 2022).

What follows are compounds tested against PRMT5:MEP50 (Homo sapiens, UniProt O14744) (assay: PRMT5:MEP50 Flashplate Assay). Conditions: PRMT5:MEP50 inhibitory activity; 3H-SAM, 2 h at room temperature, top concentration 10 μM.
Sequence of PRMT5:MEP50 (O14744 whole entry, species assumed): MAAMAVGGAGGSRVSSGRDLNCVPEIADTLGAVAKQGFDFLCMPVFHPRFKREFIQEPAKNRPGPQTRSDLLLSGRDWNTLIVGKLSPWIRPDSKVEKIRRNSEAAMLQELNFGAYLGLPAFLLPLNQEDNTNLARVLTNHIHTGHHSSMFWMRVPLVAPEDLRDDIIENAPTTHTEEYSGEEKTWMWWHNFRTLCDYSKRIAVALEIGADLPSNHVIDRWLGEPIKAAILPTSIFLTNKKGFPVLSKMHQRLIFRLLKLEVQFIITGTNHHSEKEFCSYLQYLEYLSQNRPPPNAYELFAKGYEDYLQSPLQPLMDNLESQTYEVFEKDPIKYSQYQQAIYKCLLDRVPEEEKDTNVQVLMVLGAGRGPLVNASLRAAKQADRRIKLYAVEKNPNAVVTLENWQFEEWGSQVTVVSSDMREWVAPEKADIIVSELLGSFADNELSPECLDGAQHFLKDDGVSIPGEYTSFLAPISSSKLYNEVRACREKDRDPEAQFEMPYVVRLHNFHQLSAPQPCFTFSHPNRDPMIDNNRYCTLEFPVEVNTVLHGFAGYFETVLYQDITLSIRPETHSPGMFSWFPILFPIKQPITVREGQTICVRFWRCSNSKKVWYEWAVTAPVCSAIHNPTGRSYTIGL
Sequence of PRMT5:MEP50 (Q9BQA1 whole entry partner, species assumed): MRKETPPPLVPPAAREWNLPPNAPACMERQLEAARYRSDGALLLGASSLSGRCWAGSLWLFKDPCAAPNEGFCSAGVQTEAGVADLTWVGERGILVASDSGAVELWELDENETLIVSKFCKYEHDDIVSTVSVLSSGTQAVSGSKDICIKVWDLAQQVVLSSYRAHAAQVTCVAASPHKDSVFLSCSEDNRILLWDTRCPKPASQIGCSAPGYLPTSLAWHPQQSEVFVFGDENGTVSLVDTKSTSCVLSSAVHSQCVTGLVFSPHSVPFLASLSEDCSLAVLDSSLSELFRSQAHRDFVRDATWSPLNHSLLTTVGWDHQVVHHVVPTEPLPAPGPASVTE
Assay type: biochemical
Experimental: PRMT5:MEP50 Flashplate Assay:
Ten-point curves of inhibitor compounds were made using serial threefold dilutions in DMSO (the final top concentration of compound was 10 μM, 1% DMSO). Reaction mixture consisting of 50 mM Tris-HCl (pH 8.5), 0.002% Tween 20, 0.005% BSA (Bovine Serum Albumin), 1 mM TCEP, and 1% DMSO. Substrates are freshly prepared in reaction buffer. PRMT5:MEP50 was then added into substrate solution and mixed gently. Inhibitor compound was then added and incubated for 30 min at room temperature. ^3H-SAM was added to initiate the reaction. Reactions were incubated for 2 h at room temperature and quenched with 0.5 mM SAM (S-adenosyl-L-Methionine) in assay buffer. An aliquot of the reaction mix was transferred to a streptavidin-coated 384-well FlashPlate (PerkinElmer). After an incubation time of 1 h, the plate was washed and then read on a TopCount (PerkinElmer) to measure the amount of tritium incorporated into the peptide substrate. IC50 was calculated using conventional curve-fitting method.
`NC1=Nc2cc(CC[C@H]3C[C@@H](n4ccc5c(N)ncnc54)[C@H](O)[C@@H]3O)ccc2[C@@H]2C[C@H]12` (single isomer, unassigned) [Compound 1-10] gave an IC50 of less than 1 nM. In the case of `NC1=Nc2cc(CC[C@H]3C[C@@H](n4ccc5c(N)ncnc54)[C@H](O)[C@@H]3O)ccc2[C@H]2C[C@@H]12` (single isomer, unassigned) [Compound 1-11], the IC50 is reported as less than 1 nM. Work on `Nc1ncnc2c1ccn2[C@@H]1C[C@H](CCc2ccc3cc4c(nc3c2)NCC4)[C@@H](O)[C@H]1O` [Compound 1-7, (1R,2S,3R,5S)-3-(4-amino-7H-pyrrolo[2,3-d]pyrimidin-7-yl)-5-(2-(2,3-dihydro-1H-pyrrolo[2,3-b]quinolin-7-yl)ethyl)cyclopentane-1,2-diol] yielded an IC50 of less than 1 nM. With `NC1=Nc2cc(CC[C@H]3C[C@@H](n4ccc5c(N)ncnc54)[C@H](O)[C@@H]3O)ccc2C2=NCCN12` [Compound 1-8, (1S,2R,3S,5R)-3-(2-(5-amino-2,3-dihydroimidazo[1,2-c]quinazolin-8-yl)ethyl)-5-(4-amino-7H-pyrrolo[2,3-d]pyrimidin-7-yl)cyclopentane-1,2-diol] the IC50 was less than 1 nM. With `Nc1ncnc2c1ccn2[C@@H]1C[C@H](CCc2ccc3c(c2)nc(N)n2ccnc32)[C@@H](O)[C@H]1O` [Compound 1-9, (1R,2S,3R,5S)-3-(4-amino-7H-pyrrolo[2,3-d]pyrimidin-7-yl)-5-(2-(5-aminoimidazo-[1,2-c]quinazolin-8-yl)ethyl)cyclopentane-1,2-diol] the IC50 was less than 1 nM. For `Nc1ncnc2c1ccn2[C@@H]1C[C@H](CCc2ccc3cc4cn[nH]c4nc3c2)[C@@H](O)[C@H]1O` [Compound 1-12, (1S,2R,3S,5R)-3-(2-(1H-pyrazolo[3,4-b]quinolin-7-yl)ethyl)-5-(4-amino-7H-pyrrolo-[2,3-d]pyrimidin-7-yl)cyclopentane-1,2-diol], the IC50 was 1 to 100 nM. For `Nc1ncnc2c1ccn2[C@@H]1C[C@H](CCc2ccc3cc4c(nc3c2)NOCC4)[C@@H](O)[C@H]1O` [Compound 1-13, (1R,2S,3R,5S)-3-(4-amino-7H-pyrrolo[2,3-d]pyrimidin-7-yl)-5-(2-(3,4-dihydro-1H-[1,2]oxazino[3,4-b]quinolin-8-yl)ethyl)cyclopentane-1,2-diol], the IC50 was less than 1 nM. Compound `Nc1ncnc2c1ccn2[C@@H]1C[C@H](CCc2ccc3cc4c(nc3c2)NOC4)[C@@H](O)[C@H]1O` [Compound 1-14, (1R,2S,3R,5S)-3-(4-amino-7H-pyrrolo[2,3-d]pyrimidin-7-yl)-5-(2-(1,3-dihydroisoxazolo[3,4-b]quinolin-7-yl)ethyl)cyclopentane-1,2-diol] has an IC50 of less than 1 nM. In the case of `C[C@H]1Cc2cc3ccc(CC[C@H]4C[C@@H](n5ccc6c(N)ncnc65)[C@H](O)[C@@H]4O)cc3nc2NO1` [Compound 1-15, (1R,2S,3R,5S)-3-(4-amino-7H-pyrrolo[2,3-d]pyrimidin-7-yl)-5-(2-((S)-3-methyl-3,4-dihydro-1H-[1,2]oxazino[3,4-b]quinolin-8-yl)ethyl)cyclopentane-1,2-diol], the IC50 is reported as 1 to 100 nM. Work on `C[C@@H]1Cc2cc3ccc(CC[C@H]4C[C@@H](n5ccc6c(N)ncnc65)[C@H](O)[C@@H]4O)cc3nc2NO1` [Compound 1-16, (1R,2S,3R,5S)-3-(4-amino-7H-pyrrolo[2,3-d]pyrimidin-7-yl)-5-(2-((R)-3-methyl-3,4-dihydro-1H-[1,2]oxazino[3,4-b]quinolin-8-yl)ethyl)cyclopentane-1,2-diol] yielded an IC50 of less than 1 nM. `Nc1ncnc2c1ccn2[C@@H]1C[C@H](CCc2ccc3cc4c(nc3c2)NOCCC4)[C@@H](O)[C@H]1O` [Compound 1-17, (1R,2S,3R,5S)-3-(4-amino-7H-pyrrolo[2,3-d]pyrimidin-7-yl)-5-(2-(1,3,4,5-tetrahydro-[1,2]oxazepino[3,4-b]quinolin-9-yl)ethyl)cyclopentane-1,2-diol] gave an IC50 of 1 to 100 nM. With `Nc1ncnc2c1ccn2[C@@H]1C[C@H](CCc2ccc3cc4nc[nH]c4nc3c2)[C@@H](O)[C@H]1O` [Compound 1-18, (1S,2R,3S,5R)-3-(2-(3H-imidazo[4,5-b]quinolin-6-yl)ethyl)-5-(4-amino-7H-pyrrolo[2,3-d]pyrimidin-7-yl)cyclopentane-1,2-diol] the IC50 was less than 1 nM. `Nc1ncnc2c1ccn2[C@@H]1C[C@H](CCc2ccc3cc4nn[nH]c4nc3c2)[C@@H](O)[C@H]1O` [Compound 1-19, (1S,2R,3S,5R)-3-(2-(3H-[1,2,3]triazolo[4,5-b]quinolin-6-yl)ethyl)-5-(4-amino-7H-pyrrolo[2,3-d]pyrimidin-7-yl)cyclopentane-1,2-diol] was tested, and the IC50 was 1 to 100 nM. `C[C@H]1Cc2cc3ccc(CC[C@H]4C[C@@H](n5ccc6c(N)ncnc65)[C@H](O)[C@@H]4O)cc3nc2N1` [Compound 1-20, (1R,2S,3R,5S)-3-(4-amino-7H-pyrrolo[2,3-d]pyrimidin-7-yl)-5-(2-((S)-2-methyl-2,3-dihydro-1H-pyrrolo[2,3-b]quinolin-7-yl)ethyl)cyclopentane-1,2-diol] showed an IC50 of less than 1 nM. Compound `C[C@@H]1Cc2cc3ccc(CC[C@H]4C[C@@H](n5ccc6c(N)ncnc65)[C@H](O)[C@@H]4O)cc3nc2N1` [Compound 1-21, (1R,2S,3R,5S)-3-(4-amino-7H-pyrrolo[2,3-d]pyrimidin-7-yl)-5-(2-((R)-2-methyl-2,3-dihydro-1H-pyrrolo[2,3-b]quinolin-7-yl)ethyl)cyclopentane-1,2-diol] has an IC50 of less than 1 nM. `Nc1ncnc2c1ccn2[C@@H]1C[C@H](CCc2ccc3cc4c(nc3c2)N[C@H](C2CC2)C4)[C@@H](O)[C@H]1O` [Compound 1-22, (1R,2S,3R,5S)-3-(4-amino-7H-pyrrolo[2,3-d]pyrimidin-7-yl)-5-(2-((S)-2-cyclopropyl-2,3-dihydro-1H-pyrrolo[2,3-b]quinolin-7-yl)ethyl)cyclopentane-1,2-diol] was tested, and the IC50 was less than 1 nM. In the case of `Nc1ncnc2c1ccn2[C@@H]1C[C@H](CCc2ccc3cc4c(nc3c2)N[C@@H](C2CC2)C4)[C@@H](O)[C@H]1O` [Compound 1-23, (1R,2S,3R,5S)-3-(4-amino-7H-pyrrolo[2,3-d]pyrimidin-7-yl)-5-(2-((R)-2-cyclopropyl-2,3-dihydro-1H-pyrrolo[2,3-b]quinolin-7-yl)ethyl)cyclopentane-1,2-diol], the IC50 is reported as less than 1 nM. `CC[C@@H]1Cc2cc3ccc(CC[C@H]4C[C@@H](n5ccc6c(N)ncnc65)[C@H](O)[C@@H]4O)cc3nc2N1` [Compound 1-24, (1R,2S,3R,5S)-3-(4-amino-7H-pyrrolo[2,3-d]pyrimidin-7-yl)-5-(2-((R)-2-ethyl-2,3-dihydro-1H-pyrrolo[2,3-b]quinolin-7-yl)ethyl)cyclopentane-1,2-diol] was tested, and the IC50 was less than 1 nM. Compound `CC(C)[C@@H]1Cc2cc3ccc(CC[C@H]4C[C@@H](n5ccc6c(N)ncnc65)[C@H](O)[C@@H]4O)cc3nc2N1` [Compound 1-25, (1R,2S,3R,5S)-3-(4-amino-7H-pyrrolo[2,3-d]pyrimidin-7-yl)-5-(2-((S)-2-isopropyl-2,3-dihydro-1H-pyrrolo[2,3-b]quinolin-7-yl)ethyl)cyclopentane-1,2-diol] has an IC50 of less than 1 nM. `CC(C)(C)[C@@H]1Cc2cc3ccc(CC[C@H]4C[C@@H](n5ccc6c(N)ncnc65)[C@H](O)[C@@H]4O)cc3nc2N1` [Compound 1-26, (1R,2S,3R,5S)-3-(4-amino-7H-pyrrolo[2,3-d]pyrimidin-7-yl)-5-(2-((S)-2-(tert-butyl)-2,3-dihydro-1H-pyrrolo[2,3-b]quinolin-7-yl)ethyl)cyclopentane-1,2-diol] was tested, and the IC50 was less than 1 nM. `C=CC[C@@H]1Cc2cc3ccc(CC[C@H]4C[C@@H](n5ccc6c(N)ncnc65)[C@H](O)[C@@H]4O)cc3nc2N1` [Compound 1-27, (1S,2R,3S,5R)-3-(2-((R)-2-allyl-2,3-dihydro-1H-pyrrolo[2,3-b]quinolin-7-yl)ethyl)-5-(4-amino-7H-pyrrolo[2,3-d]pyrimidin-7-yl)cyclopentane-1,2-diol] was tested, and the IC50 was less than 1 nM. `Nc1ncnc2c1ccn2[C@@H]1C[C@H](CCc2ccc3cc4c(nc3c2)N[C@H](c2ccccc2)C4)[C@@H](O)[C@H]1O` [Compound 1-28, (1R,2S,3R,5S)-3-(4-amino-7H-pyrrolo[2,3-d]pyrimidin-7-yl)-5-(2-((S)-2-phenyl-2,3-dihydro-1H-pyrrolo[2,3-b]quinolin-7-yl)ethyl)cyclopentane-1,2-diol] gave an IC50 of 1 to 100 nM. Work on `Nc1ncnc2c1ccn2[C@@H]1C[C@H](CCc2ccc3cc4c(nc3c2)N[C@H](CC2CC2)C4)[C@@H](O)[C@H]1O` [Compound 1-29, (1R,2S,3R,5S)-3-(4-amino-7H-pyrrolo[2,3-d]pyrimidin-7-yl)-5-(2-((R)-2-(cyclopropylmethyl)-2,3-dihydro-1H-pyrrolo[2,3-b]quinolin-7-yl)ethyl)cyclopentane-1,2-diol] yielded an IC50 of 1 to 100 nM. With `CC1(C)Cc2cc3ccc(CC[C@H]4C[C@@H](n5ccc6c(N)ncnc65)[C@H](O)[C@@H]4O)cc3nc2N1` [Compound 1-30, (1R,2S,3R,5S)-3-(4-amino-7H-pyrrolo[2,3-d]pyrimidin-7-yl)-5-(2-(2,2-dimethyl-2,3-dihydro-1H-pyrrolo[2,3-b]quinolin-7-yl)ethyl)cyclopentane-1,2-diol] the IC50 was less than 1 nM. In the case of `Nc1ncnc2c1ccn2[C@@H]1C[C@H](CCc2ccc3cc4c(nc3c2)NC2(CC2)C4)[C@@H](O)[C@H]1O` [Compound 1-31, (1R,2S,3R,5S)-3-(4-amino-7H-pyrrolo[2,3-d]pyrimidin-7-yl)-5-(2-(1′,3′-dihydrospiro[cyclopropane-1,2′-pyrrolo[2,3-b]quinolin]-7′-yl)ethyl)cyclopentane-1,2-diol], the IC50 is reported as less than 1 nM. Work on `Nc1ncnc2c1ccn2[C@@H]1C[C@H](CCc2ccc3cc4c(=O)[nH][nH]c4nc3c2)[C@@H](O)[C@H]1O` [Compound 1-32, 7-(2-((1S,2R,3S,4R)-4-(4-amino-7H-pyrrolo[2,3-d]pyrimidin-7-yl)-2,3-dihydroxycyclopentyl)ethyl)-1,2-dihydro-3H-pyrazolo[3,4-b]quinolin-3-one] yielded an IC50 of 1 to 100 nM.
